Experimental data as given in ChEMBL document CHEMBL2321853, “Novel acylethanolamide derivatives that modulate body weight through enhancement of hypothalamic pro-opiomelanocortin (POMC) and/or decreased neuropeptide Y (NPY)” (J Med Chem, 2013).
Active and inactive are the calls of the source. No cut-off for these calls is given here.

Key:
Mus musculus [1] = assay: Antiobesity activity in C57BL/6 mouse assessed as change in cholesterol level at 5 mg/kg, ip measured on day 36 (reference value: 86.58 mg/dL); format: functional; conditions: route intraperitoneal
Mus musculus [2] = assay: Antiobesity activity in C57BL/6 mouse assessed as change in AST level at 5 mg/kg, ip measured on day 36 (reference value: 146.7 IU/L); format: functional; conditions: route intraperitoneal
Mus musculus [3] = assay: Antiobesity activity in C57BL/6 mouse assessed as change in triglyceride level at 5 mg/kg, ip measured on day 36 (reference value: 0.92 mg/dL); format: functional; conditions: route intraperitoneal
Mus musculus [4] = assay: Antiobesity activity in C57BL/6 mouse assessed as change in glucose level in blood at 5 mg/kg, ip administered on day 1, 4, 5, 7, 17, 15, 19 measured on day 19 relative to control; format: functional; conditions: route intraperitoneal
Mus musculus [5] = assay: Antiobesity activity in C57BL/6 mouse assessed as change in glucose level in blood at 5 mg/kg, ip administered on day 1, 4, 5, 7, 17, 15, 19 measured on day 15 relative to control; format: functional; conditions: route intraperitoneal
Mus musculus [6] = assay: Antiobesity activity in C57BL/6 mouse assessed as change in glucose level in blood at 5 mg/kg, ip administered on day 1, 4, 5, 7, 17, 15, 19 measured on day 11 relative to control; format: functional; conditions: route intraperitoneal
Mus musculus [7] = assay: Antiobesity activity in C57BL/6 mouse assessed as change in glucose level in blood at 5 mg/kg, ip administered on day 1, 4, 5, 7, 17, 15, 19 measured on day 9 relative to control; format: functional; conditions: route intraperitoneal
Mus musculus [8] = assay: Antiobesity activity in C57BL/6 mouse assessed as change in glucose level in blood at 5 mg/kg, ip administered on day 1, 4, 5, 7, 17, 15, 19 measured on day 5 relative to control; format: functional; conditions: route intraperitoneal
Mus musculus [9] = assay: Antiobesity activity in C57BL/6 mouse assessed as change in glucose level in blood at 5 mg/kg, ip administered on day 1, 4, 5, 7, 17, 15, 19 measured on day 3 relative to control; format: functional; conditions: route intraperitoneal
Mus musculus [10] = assay: Antiobesity activity in C57BL/6 mouse assessed as weight loss at 5 mg/kg, ip administered on day 1, 4, 5, 7, 17, 15, 19 measured on day 19 relative to control; format: functional; conditions: route intraperitoneal
Mus musculus [11] = assay: Antiobesity activity in C57BL/6 mouse assessed as weight loss at 5 mg/kg, ip administered on day 1, 4, 5, 7, 17, 15, 19 measured on day 17 relative to control; format: functional; conditions: route intraperitoneal
Mus musculus [12] = assay: Antiobesity activity in C57BL/6 mouse assessed as weight loss at 5 mg/kg, ip administered on day 1, 4, 5, 7, 17, 15, 19 measured on day 15 relative to control; format: functional; conditions: route intraperitoneal
Mus musculus [13] = assay: Antiobesity activity in C57BL/6 mouse assessed as weight loss at 5 mg/kg, ip administered on day 1, 4, 5, 7, 17, 15, 19 measured on day 12 relative to control; format: functional; conditions: route intraperitoneal
Mus musculus [14] = assay: Antiobesity activity in C57BL/6 mouse assessed as weight loss at 5 mg/kg, ip administered on day 1, 4, 5, 7, 17, 15, 19 measured on day 11 relative to control; format: functional; conditions: route intraperitoneal
Mus musculus [15] = assay: Antiobesity activity in C57BL/6 mouse assessed as weight loss at 5 mg/kg, ip administered on day 1, 4, 5, 7, 17, 15, 19 measured on day 9 relative to control; format: functional; conditions: route intraperitoneal
Mus musculus [16] = assay: Antiobesity activity in C57BL/6 mouse assessed as weight loss at 5 mg/kg, ip administered on day 1, 4, 5, 7, 17, 15, 19 measured on day 8 relative to control; format: functional; conditions: route intraperitoneal
Mus musculus [17] = assay: Antiobesity activity in C57BL/6 mouse assessed as weight loss at 5 mg/kg, ip administered on day 1, 4, 5, 7, 17, 15, 19 measured on day 5 relative to control; format: functional; conditions: route intraperitoneal
Mus musculus [18] = assay: Antiobesity activity in C57BL/6 mouse assessed as weight loss at 5 mg/kg, ip administered on day 1, 4, 5, 7, 17, 15, 19 measured on day 3 relative to control; format: functional; conditions: route intraperitoneal
Mus musculus [19] = assay: Enhancement of cognitive function in Sabra mouse at 1 mg/kg, ip administered on day 8, 12 and 43 by eight-arm maze test; format: functional, organism-based; set-up: dose 1 mg/kg
Mus musculus [20] = assay: Increase in ALT levels in Sabra mouse at 1 mg/kg, ip administered on day 8, 12 and 43 measured on day 74; format: ADME, organism-based; set-up: dose 1 mg/kg, route intraperitoneal; conditions: in vivo
Mus musculus [21] = assay: Effect on neurological score in Sabra mouse assessed as change in neurological score at 1 mg/kg, ip administered on day 8, 12 and 43 by NSS method; format: functional, organism-based; set-up: dose 1 mg/kg
Mus musculus [22] = assay: Antiobesity activity in Sabra mouse assessed as change in body weight at 1 mg/kg, ip administered on day 8, 12 and 43 measured on day 71 relative to control; format: functional; conditions: route intraperitoneal
Mus musculus [23] = assay: Antiobesity activity in Sabra mouse assessed as change in body weight at 1 mg/kg, ip administered on day 8, 12 and 43 measured on day 54 relative to control; format: functional; conditions: route intraperitoneal
Mus musculus [24] = assay: Antiobesity activity in Sabra mouse assessed as change in body weight at 1 mg/kg, ip administered on day 8, 12 and 43 measured on day 50 relative to control; format: functional; conditions: route intraperitoneal
Mus musculus [25] = assay: Antiobesity activity in Sabra mouse assessed as change in body weight at 1 mg/kg, ip administered on day 8, 12 and 43 measured on day 43 relative to control; format: functional; conditions: route intraperitoneal
Mus musculus [26] = assay: Antiobesity activity in Sabra mouse assessed as change in body weight at 1 mg/kg, ip administered on day 8, 12 and 43 measured on day 36 relative to control; format: functional; conditions: route intraperitoneal
Mus musculus [27] = assay: Antiobesity activity in Sabra mouse assessed as change in body weight at 1 mg/kg, ip administered on day 8, 12 and 43 measured on day 33 relative to control; format: functional; conditions: route intraperitoneal
Mus musculus [28] = assay: Antiobesity activity in Sabra mouse assessed as change in body weight at 1 mg/kg, ip administered on day 8, 12 and 43 measured on day 29 relative to control; format: functional; conditions: route intraperitoneal
Mus musculus [29] = assay: Antiobesity activity in Sabra mouse assessed as change in body weight at 1 mg/kg, ip administered on day 8, 12 and 43 measured on day 15 relative to control; format: functional; conditions: route intraperitoneal
Mus musculus [30] = assay: Antiobesity activity in Sabra mouse assessed as change in body weight at 1 mg/kg, ip administered on day 8, 12 and 43 measured on day 12 relative to control; format: functional; conditions: route intraperitoneal
Mus musculus [31] = assay: Antiobesity activity in Sabra mouse assessed as change in body weight at 1 mg/kg, ip administered on day 8, 12 and 43 measured on day 8 relative to control; format: functional; conditions: route intraperitoneal
Mus musculus [32] = assay: Antiobesity activity in Sabra mouse assessed as change in body weight at 1 mg/kg, ip administered on day 8, 12 and 43 measured on day 5 relative to control; format: functional; conditions: route intraperitoneal
Mus musculus [33] = assay: Antiobesity activity in Sabra mouse assessed as reduction in body weight at 1 mg/kg, ip administered on day 0, 10, 11, 12, 24, 29 measured on day 39 relative to control; format: functional; set-up: scale not given: the % may be the effect or the level left; conditions: route intraperitoneal
Mus musculus [34] = assay: Antiobesity activity in Sabra mouse assessed as reduction in body weight at 1 mg/kg, ip administered on day 0, 10, 11, 12, 24, 29 measured on day 36 relative to control; format: functional; set-up: scale not given: the % may be the effect or the level left; conditions: route intraperitoneal
Mus musculus [35] = assay: Antiobesity activity in Sabra mouse assessed as reduction in body weight at 1 mg/kg, ip administered on day 0, 10, 11, 12, 24, 29 measured on day 29 relative to control; format: functional; set-up: scale not given: the % may be the effect or the level left; conditions: route intraperitoneal
Mus musculus [36] = assay: Antiobesity activity in Sabra mouse assessed as reduction in body weight at 1 mg/kg, ip administered on day 0, 10, 11, 12, 24, 29 measured on day 33 relative to control; format: functional; set-up: scale not given: the % may be the effect or the level left; conditions: route intraperitoneal
Mus musculus [37] = assay: Antiobesity activity in Sabra mouse assessed as reduction in body weight at 1 mg/kg, ip administered on day 0, 10, 11, 12, 24, 29 measured on day 26 relative to control; format: functional; set-up: scale not given: the % may be the effect or the level left; conditions: route intraperitoneal
Mus musculus [38] = assay: Antiobesity activity in Sabra mouse assessed as reduction in body weight at 1 mg/kg, ip administered on day 0, 10, 11, 12, 24, 29 measured on day 24 relative to control; format: functional; set-up: scale not given: the % may be the effect or the level left; conditions: route intraperitoneal
Mus musculus [39] = assay: Antiobesity activity in Sabra mouse assessed as reduction in body weight at 1 mg/kg, ip administered on day 0, 10, 11, 12, 24, 29 measured on day 22 relative to control; format: functional; set-up: scale not given: the % may be the effect or the level left; conditions: route intraperitoneal
Mus musculus [40] = assay: Antiobesity activity in Sabra mouse assessed as reduction in body weight at 1 mg/kg, ip administered on day 0, 10, 11, 12, 24, 29 measured on day 19 relative to control; format: functional; set-up: scale not given: the % may be the effect or the level left; conditions: route intraperitoneal
Mus musculus [41] = assay: Antiobesity activity in Sabra mouse assessed as reduction in body weight at 1 mg/kg, ip administered on day 0, 10, 11, 12, 24, 29 measured on day 12 relative to control; format: functional; set-up: scale not given: the % may be the effect or the level left; conditions: route intraperitoneal
[42] = biological target: Transient receptor potential cation channel subfamily V member 1 (Mus musculus) (UniProt Q704Y3); assay: Displacement of [3H]resiniferatoxin from TRPV1 in mouse cortical slices
Chain of Transient receptor potential cation channel subfamily V member 1 (Mus musculus) (Q704Y3 whole entry): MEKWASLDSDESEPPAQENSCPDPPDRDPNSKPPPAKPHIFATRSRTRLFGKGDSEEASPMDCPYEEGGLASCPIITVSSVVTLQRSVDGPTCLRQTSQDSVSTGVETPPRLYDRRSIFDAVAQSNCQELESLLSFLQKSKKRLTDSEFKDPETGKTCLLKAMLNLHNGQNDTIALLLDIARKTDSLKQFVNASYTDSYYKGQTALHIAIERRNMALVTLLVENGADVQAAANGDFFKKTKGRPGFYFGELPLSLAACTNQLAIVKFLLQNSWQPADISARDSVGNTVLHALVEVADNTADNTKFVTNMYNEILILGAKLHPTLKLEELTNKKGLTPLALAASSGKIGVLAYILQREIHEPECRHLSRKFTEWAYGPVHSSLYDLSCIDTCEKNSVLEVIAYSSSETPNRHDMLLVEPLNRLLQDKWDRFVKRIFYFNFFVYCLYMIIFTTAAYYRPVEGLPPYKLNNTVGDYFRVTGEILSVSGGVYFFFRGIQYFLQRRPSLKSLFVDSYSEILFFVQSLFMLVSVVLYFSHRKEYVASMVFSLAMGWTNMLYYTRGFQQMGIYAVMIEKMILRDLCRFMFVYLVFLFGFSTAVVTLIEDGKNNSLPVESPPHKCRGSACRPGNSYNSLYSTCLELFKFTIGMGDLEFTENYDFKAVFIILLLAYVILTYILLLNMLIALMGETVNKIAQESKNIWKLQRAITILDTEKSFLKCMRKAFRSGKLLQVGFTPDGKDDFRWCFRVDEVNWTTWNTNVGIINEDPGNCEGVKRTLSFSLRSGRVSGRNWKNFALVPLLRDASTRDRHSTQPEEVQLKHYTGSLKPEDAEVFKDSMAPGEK

[43] = biological target: Transient receptor potential cation channel subfamily V member 1 (Homo sapiens, UniProt Q8NER1); assay: Activation of TRPV1 in HEK293 cells; format: cell-based
Chain of Transient receptor potential cation channel subfamily V member 1 (Q8NER1 whole entry): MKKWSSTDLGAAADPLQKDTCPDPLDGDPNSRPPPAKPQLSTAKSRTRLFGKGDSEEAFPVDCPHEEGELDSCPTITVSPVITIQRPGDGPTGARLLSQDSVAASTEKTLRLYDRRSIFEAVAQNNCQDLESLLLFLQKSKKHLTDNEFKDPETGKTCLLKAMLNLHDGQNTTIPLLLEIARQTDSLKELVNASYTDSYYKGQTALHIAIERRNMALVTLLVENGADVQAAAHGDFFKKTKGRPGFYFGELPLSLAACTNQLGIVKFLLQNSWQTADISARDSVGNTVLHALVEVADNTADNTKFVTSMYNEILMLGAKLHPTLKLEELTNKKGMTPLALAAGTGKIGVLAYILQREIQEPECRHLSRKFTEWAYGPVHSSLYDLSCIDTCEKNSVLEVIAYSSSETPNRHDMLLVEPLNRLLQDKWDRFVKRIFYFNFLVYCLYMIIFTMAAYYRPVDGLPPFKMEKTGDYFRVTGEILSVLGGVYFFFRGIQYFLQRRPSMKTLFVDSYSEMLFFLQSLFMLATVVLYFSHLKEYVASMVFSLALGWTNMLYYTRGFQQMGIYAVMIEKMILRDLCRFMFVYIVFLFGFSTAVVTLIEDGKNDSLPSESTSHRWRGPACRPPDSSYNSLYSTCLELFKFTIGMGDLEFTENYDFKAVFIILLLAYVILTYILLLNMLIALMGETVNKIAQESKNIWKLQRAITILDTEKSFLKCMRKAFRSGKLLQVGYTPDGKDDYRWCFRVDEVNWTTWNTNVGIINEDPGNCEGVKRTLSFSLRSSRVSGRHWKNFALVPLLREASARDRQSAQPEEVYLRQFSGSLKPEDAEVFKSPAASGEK

[44] = biological target: Transient receptor potential cation channel subfamily V member 1 (Rattus norvegicus) (UniProt O35433); assay: Activation of TRPV1 in rat blood vessels; format: tissue-based; conditions: Blood vessel
Chain of Transient receptor potential cation channel subfamily V member 1 (Rattus norvegicus) (O35433 whole entry): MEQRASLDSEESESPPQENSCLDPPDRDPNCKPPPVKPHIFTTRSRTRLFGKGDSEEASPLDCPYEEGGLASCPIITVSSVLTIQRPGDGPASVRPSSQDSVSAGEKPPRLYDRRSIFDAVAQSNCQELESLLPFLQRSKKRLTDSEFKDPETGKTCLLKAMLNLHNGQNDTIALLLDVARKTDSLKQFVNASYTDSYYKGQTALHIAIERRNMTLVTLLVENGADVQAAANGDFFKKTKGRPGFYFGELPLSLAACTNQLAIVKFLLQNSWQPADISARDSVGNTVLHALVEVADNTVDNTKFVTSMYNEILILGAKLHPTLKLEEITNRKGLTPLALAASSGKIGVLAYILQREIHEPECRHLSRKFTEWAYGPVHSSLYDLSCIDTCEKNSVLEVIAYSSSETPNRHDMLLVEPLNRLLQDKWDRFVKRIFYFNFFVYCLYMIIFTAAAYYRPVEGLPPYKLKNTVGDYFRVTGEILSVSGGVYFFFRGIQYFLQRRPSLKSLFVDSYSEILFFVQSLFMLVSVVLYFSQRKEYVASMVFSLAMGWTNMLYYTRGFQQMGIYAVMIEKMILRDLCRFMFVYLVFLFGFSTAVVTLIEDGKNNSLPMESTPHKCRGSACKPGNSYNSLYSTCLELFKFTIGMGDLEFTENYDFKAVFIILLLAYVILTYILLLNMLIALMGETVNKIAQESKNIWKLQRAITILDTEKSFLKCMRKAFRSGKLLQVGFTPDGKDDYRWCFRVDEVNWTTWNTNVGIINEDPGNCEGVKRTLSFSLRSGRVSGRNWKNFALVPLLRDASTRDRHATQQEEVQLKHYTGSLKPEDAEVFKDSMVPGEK

For `Cc1c(C(=O)NN2CCCCC2)nn(-c2ccc(Cl)cc2Cl)c1-c1ccc(Cl)cc1` [RIMONABANT], the Activity (Mus musculus [1]) was 94.16 mg/dL, the Activity (Mus musculus [2]) was 125.3 IU/L and the Activity (Mus musculus [3]) was 1.286 mg/dL. It also gave an Activity (Mus musculus [4]) of 19.8%, an Activity (Mus musculus [5]) of -15.5% and an Activity (Mus musculus [6]) of -20.7%. For the same compound, the Activity (Mus musculus [7]) was -16.2%, the Activity (Mus musculus [8]) was -11% and the Activity (Mus musculus [9]) was 0.86%. It also gave an Activity (Mus musculus [10]) of -4.5%, an Activity (Mus musculus [11]) of -1.9% and an Activity (Mus musculus [12]) of -4.5%. For the same compound, the Activity (Mus musculus [13]) was -4.5%, the Activity (Mus musculus [14]) was -3.1% and the Activity (Mus musculus [15]) was -4.6%. It also gave an Activity (Mus musculus [16]) of -3.5%, an Activity (Mus musculus [17]) of -3.2% and an Activity (Mus musculus [18]) of -0.6%. The Activity (Mus musculus [19]) was “inactive”, the Activity (Mus musculus [20]) was “Active” and the Activity (Mus musculus [21]) was “inactive”. The Activity (Mus musculus [22]) was -0.9%, the Activity (Mus musculus [23]) was -3.5% and the Activity (Mus musculus [24]) was -2.4%. It also gave an Activity (Mus musculus [25]) of -3.1%, an Activity (Mus musculus [26]) of -2.2% and an Activity (Mus musculus [27]) of 0.8%. For the same compound, the Activity (Mus musculus [28]) was 1.5%, the Activity (Mus musculus [29]) was 1.6% and the Activity (Mus musculus [30]) was 0.9%. It also gave an Activity (Mus musculus [31]) of 3.2% and an Activity (Mus musculus [32]) of 0.3%.
`CCCCCCCC/C=C\CCCCCCCC(=O)N[C@@H](C)CO` was tested, and the Activity (Mus musculus [33]) was -3.58%, the Activity (Mus musculus [34]) was -2.56% and the Activity (Mus musculus [35]) was -3.66%. The Activity (Mus musculus [36]) was -1.63%, the Activity (Mus musculus [37]) was -0.5% and the Activity (Mus musculus [38]) was -1.57%. For the same compound, the Activity (Mus musculus [39]) was -2.24%, the Activity (Mus musculus [40]) was -2.24% and the Activity (Mus musculus [41]) was -1.8%.
In the case of `CCCCCCCCCCCCCCCCCC(=O)NCCO`, the Activity [42] was “inactive”.
For `CCCCCCCCCCCCCCCC(=O)NCCO`, the Activity [43] was “inactive” and the Activity [44] was “inactive”.
